{
  "source": "ChEMBL document CHEMBL3525914",
  "about": "“Induction of hepatic multidrug resistance-associated protein 3 by ethynylestradiol is independent of cholestasis and mediated by estrogen receptor” (Drug Metab Dispos, 2013)",
  "key": {"Rattus norvegicus [1]": {"tested_on": "Rattus norvegicus", "assay": "Toxicity in Wistar rat assessed as bile flow per gm of liver at 5 mg/kg, sc administered as single dose after 5 hrs (reference value: 1.40 +/- 0.14 ul/min)", "assay_type": "organism-based", "design": "dose 5 mg/kg, route subcutaneous", "settings": "in vivo; call rule not given here"}, "Rattus norvegicus [2]": {"tested_on": "Rattus norvegicus", "assay": "Toxicity in Wistar rat assessed as biliary excretion of total bile salts per gm of liver at 5 mg/kg, sc administered as single dose after 5 hrs (reference value: 50 +/- 6 nmol/min)", "assay_type": "organism-based", "design": "dose 5 mg/kg, route subcutaneous", "settings": "in vivo"}, "Rattus norvegicus [3]": {"tested_on": "Rattus norvegicus", "assay": "Toxicity in Wistar rat assessed as biliary excretion of total glutathione per gm of liver at 5 mg/kg, sc administered as single dose after 5 hrs (reference value: 2 +/- 0.79 nmol/min)", "assay_type": "organism-based", "design": "dose 5 mg/kg, route subcutaneous", "settings": "in vivo"}, "Rattus norvegicus [4]": {"tested_on": "Rattus norvegicus", "assay": "Toxicity in Wistar rat assessed as serum ALP activity at 5 mg/kg, sc administered as single dose after 5 hrs (reference value: 256 +/- 10 U/l)", "assay_type": "organism-based", "design": "dose 5 mg/kg, route subcutaneous", "settings": "in vivo"}, "Rattus norvegicus [5]": {"tested_on": "Rattus norvegicus", "assay": "Toxicity in Wistar rat assessed as increase in Mrp3 mRNA level at 5 mg/kg, sc administered as single dose after 5 hrs by qRT-PCR analysis", "assay_type": "organism-based", "design": "dose 5 mg/kg, route subcutaneous", "settings": "in vivo"}, "Hepatocyte [6]": {"tested_on": "Hepatocyte", "assay": "Effect on Mrp2 mRNA level in Wistar rat hepatocytes at 1 to 10 uM after 5 hrs by qRT-PCR analysis", "assay_type": "ADME, cell-based"}, "Hepatocyte [7]": {"tested_on": "Hepatocyte", "assay": "Effect on total ER level in Wistar rat hepatocytes nuclear extract at 10 uM after 30 to 120 mins by Western blot analysis", "assay_type": "ADME, cell-based"}},
  "data": [
    {"smiles": "C#C[C@]1(O)CC[C@H]2[C@@H]3CCc4cc(O)ccc4[C@H]3CC[C@@]21C", "note": "[ETHINYL ESTRADIOL]", "values": [
      {"measurement": "Activity", "setting": "Rattus norvegicus [1]", "value": 1.35, "unit": "µL/min"},
      {"measurement": "Activity", "setting": "Rattus norvegicus [2]", "value": 47, "unit": "nmol/min"},
      {"measurement": "Activity", "setting": "Rattus norvegicus [3]", "value": 1.8, "unit": "nmol/min"},
      {"measurement": "Activity", "setting": "Rattus norvegicus [4]", "value": 269, "unit": "U/L"},
      {"measurement": "Activity", "setting": "Rattus norvegicus [5]", "value": 330, "unit": "%"},
      {"measurement": "Activity", "setting": "Hepatocyte [6]", "value": "Not Active"},
      {"measurement": "Activity", "setting": "Hepatocyte [7]", "value": "Non-toxic"}
    ]}
  ]
}
